Where “and” joins values, the source holds several entries; their conditions need not be identical. Identical values can stand only once. Like-named read-outs stand apart in the source and are kept apart here.
Legend:
Sphaerotheca fuliginea = experiment: In vivo preventive test on Sphaerotheca fuliginea (powdery mildew on cucurbits); conditions: 500 ppm; gherkin plants sprayed 24 hours before contamination; grading 12 days after contamination vs control plants
Protocol: Gherkin plants (“Vert petit de Paris” variety), sown in starter cups on a 50/50 peat soil-pozzolana substrate and grown at 24° C., are treated at the Z11 cotyledon stage by spraying with the active ingredient prepared as described above. Plants, used as controls, are treated with the mixture of acetone/tween/DMSO/water not containing the active material. After 24 hours, the plants are contaminated by spraying the cotyledons with an aqueous suspension of Sphaerotheca fuliginea spores (100 000 spores per ml). The spores are collected from infected plants. […] Grading (% of efficacy) is carried out 12 days after the contamination, in comparison with the control plants.

Botrytis cinerea = experiment: In vivo preventive test on Botrytis cinerea (grey mould); conditions: 500 ppm; gherkin plants sprayed 24 hours before contamination; grading 4-5 days after contamination vs control plants
Protocol: Gherkin plants (“Vert petit de Paris” variety), sown in starter cups on a 50/50 peat soil-pozzolana substrate and grown at 24° C., are treated at the Z11 cotyledon stage by spraying with the active ingredient prepared as described above. Plants, used as controls, are treated with the mixture of acetone/tween/DMSO/water not containing the active material. After 24 hours, the plants are contaminated by spraying the cotyledons with an aqueous suspension of cryopreserved Botrytis cinerea spores (50 000 spores per ml). The spores are suspended in a nutrient solution composed of 10 g/L of PDB, 50 g/L of D-Fructose, 2 g/L of NH4NO3 and 1 g/L of KH2PO4. The contaminated gherkin plants are incubated at 17° C. and at 80% relative humidity. Grading (% of efficacy) is carried out 4-5 days after the contamination, in comparison with the control plants.

[1] = type: physicochemical; conditions: for chromatographic logP: pH 2.7
Septoria tritici = experiment: In vivo preventive test on Septoria tritici (leaf spot on wheat); conditions: 500 ppm; wheat plants sprayed 24 hours before contamination; grading 21 to 28 days after contamination vs control plants
In short: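 Scipion wheat at 1-leaf stage sprayed with compound, controls receiving acetone/tween/DMSO/water vehicle; 24 h later leaves inoculated with Septoria tritici spores (500 000 spores per ml). Efficacy (%) graded versus control plants 21 to 28 days after contamination.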

[2] = method [a]: HPLC/LC-MS on reversed phase at pH 2.7, 0.1% formic acid in water / acetonitrile, gradient 10% to 95% acetonitrile
[3] = HPLC on reversed phase columns, method [a]: pH 2.7, 0.1% formic acid in water / acetonitrile, linear gradient 10% to 95% acetonitrile
[4] = method [a]: HPLC/LC-MS on reversed phase at pH 2.7, 0.1% formic acid in water / acetonitrile, linear gradient 10% to 95% acetonitrile

Row | Structure (SMILES) | % of efficacy (protection) (Sphaerotheca fuliginea) | % of efficacy (protection) (Botrytis cinerea) [%] | log P [1, 2] | % of efficacy (protection) (Septoria tritici) | log P [1, 3] | chromatographic logP [1] | Log P ([1]; method [a]: HPLC/LC-MS on reversed phase at pH 2.7, 0.1% formic acid in water and acetonitrile, linear gradient 10% to 95% acetonitrile) | log P [1, 4]
1 | CCOC(=O)CC(C)NC(=O)C1(C)CC(c2ccc3ncc(Br)cc3c2)=NO1 (mixture of isomers) [compound 505] | 98% | 75 | – | – | – | – | – | –
2 | CCOCCCNC(=O)C1(OC)CC(c2ccc3ncc(I)cc3c2)=NO1 (racemic) [compound 448] | 100% | 98 | 2.80[a] | 98% | – | – | – | –
3 | C#Cc1cnc2c(Cl)cc(C3=NOC(C)(C(=O)NCCCOCC)C3)cc2c1 (racemic) [compound 545] | 100% | 100 | – | 100% | 2.94[a] | – | – | –
4 | C#Cc1cnc2c(C)cc(C3=NOC(C)(C(=O)NCCCOCC)C3)cc2c1 (racemic) [compound 546] | 100% | 100 | – | 83% | 3.04[a] | – | – | –
5 | CCOCCCNC(=O)C1(C)CC(c2cc(C)c3ncc(Br)cc3c2)=NO1 (racemic) [compound 547] | 100% | 100 | – | – | 3.48[a] | – | – | –
6 | CC(C)NC(=O)C1(C)CC(c2ccc3ncc(I)cc3c2)=NO1 (stereo not shown) [Compound No. 38, 3-(3-iodoquinolin-6-yl)-N-isopropyl-5-methyl-4,5-dihydro-1,2-oxazole-5-carboxamide] | 97% | 100 | – | 100% | – | 2.88 | – | –
7 | CC(C)NC(=O)C1(C)CC(c2ccc3ncc(Cl)cc3c2)=NO1 (stereo not shown) [Compound No. 55] | 94% and 98% | 99 | – | 100% | – | 2.61 | – | –
8 | CCc1cnc2ccc(C3=NOC(C)(C(=O)NC(C)C)C3)cc2c1 (stereo not shown) [Compound No. 259] | 94% | 75 | – | 100% | – | 1.94 | – | –
9 | CCn1cc(CNC(=O)C2(C)CC(c3cc4cc(Br)cnc4c(F)c3F)=NO2)c(C)n1 (stereo not shown) [compound 17] | 85% | 100 | – | 100% | – | – | 2.69^[a] | –
10 | CCOCCCNC(=O)C1(C)CC(c2ccc3ncc(Br)cc3c2)=NO1 (stereo not shown) [compound 32] | 100% | 98 | – | 79% and 97% | – | – | – | 2.69^[a]
11 | COc1cnc2ccc(C3=NOC(C)(C(=O)NC(C)C)C3)cc2c1 (stereo not shown) [compound 53] | 88% | 99 | – | 97% | – | – | – | 2.08^[a]
12 | CCC1(C(=O)NC(C)C)CC(c2ccc3ncc(Br)cc3c2)=NO1 (stereo not shown) [compound 66] | 98% | 100 | – | 100% | – | – | – | 3.13^[a]
13 | CCOCCCNC(=O)C1(CC)CC(c2ccc3ncc(Br)cc3c2)=NO1 (stereo not shown) [compound 68] | 98% | 98 | – | 97% | – | – | – | 3.11^[a]
14 | CCn1cc(CNC(=O)C2(CF)CC(c3ccc4ncc(Br)cc4c3)=NO2)c(C)n1 (stereo not shown) [compound 75] | 94% and 98% | 93 | – | – | – | – | – | 2.31^[a]
15 | C#Cc1cnc2ccc(C3=NOC(C)(C(=O)NCc4cccnc4)C3)cc2c1 (stereo not shown) [compound 103] | 78% | 98 | – | 75% | – | – | – | 1.26^[a]
16 | C#Cc1cnc2ccc(C3=NOC(C)(C(=O)NC4CCC4)C3)cc2c1 (stereo not shown) [compound 120] | 94% | 100 | – | 100% | – | – | – | 2.58^[a]
17 | C#Cc1cnc2ccc(C3=NOC(C)(C(=O)NCC4COC(C)(C)O4)C3)cc2c1 (stereo not shown) [compound 125] | 98% | 100 | – | 100% | – | – | – | 2.35^[a]
18 | C#Cc1cnc2ccc(C3=NOC(C)(C(=O)NCC4CCCO4)C3)cc2c1 (stereo not shown) [compound 132] | 94% | 98 | – | 100% | – | – | – | 2.17^[a]

Row | Structure (SMILES) | % of efficacy (protection) (Sphaerotheca fuliginea) | % of efficacy (protection) (Botrytis cinerea) [%] | log P [1, 2] | % of efficacy (protection) (Septoria tritici) | log P [1, 3] | chromatographic logP [1] | Log P ([1]; method [a]: HPLC/LC-MS on reversed phase at pH 2.7, 0.1% formic acid in water and acetonitrile, linear gradient 10% to 95% acetonitrile) | log P [1, 4]
19 | C#Cc1cnc2ccc(C3=NOC(C)(C(=O)NCc4cncn4C)C3)cc2c1 (stereo not shown) [compound 155] | 89% | 100 | – | 100% | – | – | – | 1.91^[a]
20 | C#Cc1cnc2ccc(C3=NOC(C)(C(=O)NCc4cnn(Cc5ccccc5)c4)C3)cc2c1 (stereo not shown) [compound 185] | 78% | 95 | – | 86% | – | – | – | 2.64^[a]
21 | C#Cc1cnc2ccc(C3=NOC(C)(C(=O)NC4CC4C4CC4)C3)cc2c1 (stereo not shown) [compound 216] | 98% | 99 | – | 100% | – | – | – | 2.92^[a]
22 | CC(NC(=O)C1(C)CC(c2ccc3ncc(Br)cc3c2)=NO1)C1=NOCC1 (stereo not shown) [compound 293] | 90% | 97 | – | 96% | 2.34[a] | – | – | –
23 | Cc1nc(C)c(C(C)NC(=O)C2(C)CC(c3ccc4ncc(Br)cc4c3)=NO2)s1 (stereo not shown) [compound 296] | 100% | 97 | – | 100% | 2.46[a] | – | – | –
24 | C#Cc1cnc2ccc(C3=NOC(C)(C(=O)Nc4cnn(C)c4)C3)cc2c1 (stereo not shown) [compound 462] | 98% | 98 | 1.98[a] | 100% | – | – | – | –
25 | C#Cc1cnc2ccc(C3=NOC(C)(C(=O)NOC(C)C4CC4)C3)cc2c1 (stereo not shown) [compound 471] | 98% | 89 | 2.43[a] | 97% | – | – | – | –
26 | C#Cc1cnc2ccc(C3=NOC(OC)(C(=O)N(O)C(C)C)C3)cc2c1 (stereo not shown) [compound 475] | 88% | 100 | 2.08[a] | 83% | – | – | – | –
27 | COC1(C(=O)NCC2COC(C)(C)O2)CC(c2ccc3ncc(I)cc3c2)=NO1 (stereo not shown) [compound 483] | 100% | 100 | 2.73[a] | 100% | – | – | – | –
28 | COC1(C(=O)NCC2COC(C)(C)O2)CC(c2ccc3ncc(Br)cc3c2)=NO1 (stereo not shown) [compound 496] | 100% | 99 | 2.62[a] | 100% | – | – | – | –
29 | COC1(C(=O)NC2CC2)CC(c2ccc3ncc(Br)cc3c2)=NO1 (stereo not shown) [compound 508] | 98% | 100 | 2.35[a] | 94% | – | – | – | –
30 | C#Cc1cnc2ccc(C3=NOC(OC)(C(=O)NC(C)CC(=O)OC)C3)cc2c1 (stereo not shown) [compound 512] | 97% | 98 | – | 97% | 2.28[a] | – | – | –
31 | C#Cc1cnc2ccc(C3=NOC(C)(C(=O)NC(CC)COC)C3)cc2c1 (stereo not shown) [compound 524] | 93% | 100 | – | 93% | 2.58[a] | – | – | –
32 | C#Cc1cnc2ccc(C3=NOC(C)(C(=O)NCC)C3)cc2c1 (stereo not shown) [compound 527] | 94% | 100 | – | 97% | 2.12[a] | – | – | –
33 | C#Cc1cnc2ccc(C3=NOC(C)(C(=O)NC)C3)cc2c1 (stereo not shown) [compound 531] | 98% | 100 | – | 100% | 1.84[a] | – | – | –
34 | CNC(=O)C1(C)CC(c2ccc3ncc(Br)cc3c2)=NO1 (stereo not shown) [compound 532] | 89% | 100 | – | 100% | 2.07[a] | – | – | –
35 | CCCn1cc(CNC(=O)C2(C)CC(c3cc(C)c4ncc(Br)cc4c3)=NO2)c(C)n1 (stereo not shown) [compound 534] | 100% | 100 | – | 92% | 3.29[a] | – | – | –
